Here are results for 13 compounds from patent EP4692094A1 (Beijing Konruns Pharmaceutical Co., Ltd., priority 2023, dated 2024).

The assay deals with T1, KAT6A (Homo sapiens, UniProt Q92794).
T1 construct: purchased active motife (Active Motif) 81223
T1 sequence (Q92794 whole entry): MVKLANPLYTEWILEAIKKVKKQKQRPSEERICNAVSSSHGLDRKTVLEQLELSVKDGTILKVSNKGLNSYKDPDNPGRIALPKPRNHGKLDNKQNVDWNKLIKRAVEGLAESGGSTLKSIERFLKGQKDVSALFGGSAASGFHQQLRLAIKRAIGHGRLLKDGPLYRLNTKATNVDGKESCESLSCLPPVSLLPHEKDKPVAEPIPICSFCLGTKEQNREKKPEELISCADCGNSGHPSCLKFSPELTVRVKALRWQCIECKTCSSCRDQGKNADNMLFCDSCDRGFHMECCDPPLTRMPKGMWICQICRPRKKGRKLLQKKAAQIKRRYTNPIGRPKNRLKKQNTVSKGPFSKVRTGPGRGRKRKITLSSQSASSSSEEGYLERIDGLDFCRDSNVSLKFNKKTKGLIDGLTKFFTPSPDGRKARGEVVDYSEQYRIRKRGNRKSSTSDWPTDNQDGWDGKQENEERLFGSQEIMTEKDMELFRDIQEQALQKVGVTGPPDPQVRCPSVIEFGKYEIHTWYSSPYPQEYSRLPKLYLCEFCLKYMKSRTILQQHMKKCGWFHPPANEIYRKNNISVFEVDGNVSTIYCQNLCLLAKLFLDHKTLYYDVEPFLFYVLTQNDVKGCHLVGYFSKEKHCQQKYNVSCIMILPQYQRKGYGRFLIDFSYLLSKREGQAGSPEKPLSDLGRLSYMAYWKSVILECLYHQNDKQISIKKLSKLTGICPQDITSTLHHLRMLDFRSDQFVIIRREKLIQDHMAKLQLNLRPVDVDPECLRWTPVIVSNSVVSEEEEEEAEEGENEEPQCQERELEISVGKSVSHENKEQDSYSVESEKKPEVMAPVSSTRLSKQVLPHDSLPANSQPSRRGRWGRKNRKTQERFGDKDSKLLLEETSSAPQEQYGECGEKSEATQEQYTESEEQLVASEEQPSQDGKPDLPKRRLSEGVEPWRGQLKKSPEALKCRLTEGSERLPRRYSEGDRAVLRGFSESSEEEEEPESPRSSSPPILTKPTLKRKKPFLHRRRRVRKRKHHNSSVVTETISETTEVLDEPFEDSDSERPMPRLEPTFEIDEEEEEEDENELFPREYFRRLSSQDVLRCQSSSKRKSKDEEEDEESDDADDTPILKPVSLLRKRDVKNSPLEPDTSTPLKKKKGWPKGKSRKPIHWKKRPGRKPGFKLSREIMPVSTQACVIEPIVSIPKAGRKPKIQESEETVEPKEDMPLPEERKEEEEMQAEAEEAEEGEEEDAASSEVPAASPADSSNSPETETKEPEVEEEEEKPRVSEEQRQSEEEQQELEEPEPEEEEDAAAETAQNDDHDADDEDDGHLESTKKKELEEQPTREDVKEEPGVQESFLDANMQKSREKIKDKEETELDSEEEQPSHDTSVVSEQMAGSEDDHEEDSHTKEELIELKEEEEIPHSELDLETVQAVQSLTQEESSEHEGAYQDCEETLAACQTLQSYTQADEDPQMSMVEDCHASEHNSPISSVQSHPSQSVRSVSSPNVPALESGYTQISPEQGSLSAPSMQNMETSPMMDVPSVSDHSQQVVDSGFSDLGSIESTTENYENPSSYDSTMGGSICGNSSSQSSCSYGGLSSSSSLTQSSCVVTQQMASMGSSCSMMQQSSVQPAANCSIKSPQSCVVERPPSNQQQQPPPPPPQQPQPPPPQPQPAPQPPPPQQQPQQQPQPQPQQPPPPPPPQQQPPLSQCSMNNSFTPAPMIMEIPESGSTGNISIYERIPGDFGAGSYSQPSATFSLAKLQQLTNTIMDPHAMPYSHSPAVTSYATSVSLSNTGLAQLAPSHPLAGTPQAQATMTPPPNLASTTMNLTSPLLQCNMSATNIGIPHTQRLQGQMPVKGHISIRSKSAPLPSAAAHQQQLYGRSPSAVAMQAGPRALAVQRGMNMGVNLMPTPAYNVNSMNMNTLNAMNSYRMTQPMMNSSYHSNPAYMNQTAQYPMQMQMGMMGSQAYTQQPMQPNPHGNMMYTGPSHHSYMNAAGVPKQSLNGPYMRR
The assay is described as follows: Enzymatic activity assay for KAT6A acetyltransferase (TR-FRET, acetylation of histone substrate H3). The class given is biochemical. How it is done: The acetylation effect of KAT6A on histone substrate H3 was determined using the TR-FRET (time-resolved fluorescence resonance energy transfer) method.
• 1) The compounds prepared in the examples of the present disclosure were each dissolved in dimethylsulfoxide to give solutions at a concentration of 10 mmol/L, and then the solutions were diluted to 0.2 mmol/L, i.e., 1 µL of the compound was added to 49 µL of DMSO, and 3-fold dilution was performed to give 10 concentrations. • 2) 50 nL of the test compounds (example compounds) were transferred to 384 reaction plates using Echo, two replicates for each compound, and the plates were centrifuged at a rotation speed of 1000 rpm for 1 min, the final concentration of dimethylsulfoxide (DMSO) being 0.5%. • 3) 2.5 µL of the reaction mixtures obtained in step 2 was added to the 384 reaction plates in step 2), and the plates were centrifuged at 1000 rpm for 1 min and incubated at 25 °C for 10 min. • 4) 2.5 µL of Bio-H3&AcCOA (acetyl-CoA) reaction solution was added to the 384 reaction plates in step 3), and the plates were centrifuged at a rotation speed of 1000 rpm for 1 min and incubated at 25 °C for 90 min. • 5) 5 µL of Eu-Ab& Ulight-SA detection solution was added to the 384 reaction plates in step 4), and the plates were centrifuged at 1000 rpm for 1 min and incubated at 25 °C for 60 min. • 6) The HTRF […] signals were read using a BMG high-throughput drug-screening multi-mode microplate reader.
The acetylation level of the histone H3 was analyzed by the GraphPad Prism 8 software. The reading of the negative control (0.5% DMSO wells) was set as 0% inhibition rate, and the reading of the positive control (wells with the highest concentration of the control compound) was set as 100% inhibition rate. The inhibition rates were calculated, and then IC50 values (half maximal inhibitory concentration) of test compounds were obtained by using a software nonlinear fitting formula; [formula]
Datapositive control: mean of positive control well values; Datanegative control: mean of negative control well values. Table 3. Enzymatic inhibitory activity of example compounds
The IC50 is the concentration that gives 50% inhibition. Consider `COc1cc2c(ccn2C)cc1S(=O)(=O)Nc1noc2cc(Cn3cccn3)nc(OC)c12` [Example 69, N-(6-((1H-Pyrazol-1-yl)methyl)-4-methoxyisoxazolo[4,5-c]pyridin-3-yl)-6-methoxy-1-methyl-1H-indole-5-sulfonamide], for which inhibition was half-maximal at 0.87 nM (IC50).
The same measure for `COc1cc2c(cc1S(=O)(=O)Nc1noc3cc(Cn4cccn4)nc(OC)c13)CCC2` [Example 70, N-(6-((1H-Pyrazol-1-yl)methyl)-4-methoxyisoxazolo[4,5-c]pyridin-3-yl)-6-methoxy-2,3-dihydro-1H-indene-5-sulfonamide]: 0.85 nM; for `COc1ccc2ccoc2c1S(=O)(=O)Nc1noc2cc(Cn3ccc(C)n3)nc(OC)c12` [Example 71, 6-Methoxy-N-(4-methoxy-6-((3-methyl-1H-pyrazol-1-yl)methyl)isoxazolo[4,5-c]pyridin-3-yl)benzofuran-7-sulfonamide]: 4.49 nM; for `COc1ccc(S(=O)(=O)Nc2noc3cc(Cn4cccn4)nc(OC)c23)c2c1CCO2` [Example 72, N-(6-((1H-Pyrazol-1-yl)methyl)-4-methoxyisoxazolo[4,5-c]pyridin-3-yl)-4-methoxy-2,3-dihydrobenzofuran-7-sulfonamide]: 5.1 nM.
Under `COc1ccc2c(c1S(=O)(=O)Nc1noc3cc(Cn4cccn4)nc(OC)c13)OCCO2` [Example 73, N-(6-((1H-Pyrazol-1-yl)methyl)-4-methoxyisoxazolo[4,5-c]pyridin-3-yl)-6-methoxy-2,3-dihydrobenzo[b][1,4]dioxine-5-sulfonamide] stands 0.97 nM; under `COc1ccc2c(c1S(=O)(=O)Nc1noc3cc(Cn4cccn4)nc(OC)c13)OC(C)(C)O2` [Example 74, N-(6-((1H-Pyrazol-1-yl)methyl)-4-methoxyisoxazolo[4,5-c]pyridin-3-yl)-5-methoxy-2,2-dimethyl-1,3-benzodioxolane-4-sulfonamide], 1.77 nM; under `COc1ccc2c(c1S(=O)(=O)Nc1noc3cc(Cn4cccn4)nc(OC)c13)CCC2` [Example 77, N-(6-((1H-Pyrazol-1-yl)methyl)-4-methoxyisoxazolo[4,5-c]pyridin-3-yl)-5-methoxy-2,3-dihydro-1H-indene-4-sulfonamide], 1.91 nM.
Under `COc1ccc2occ(S(=O)(=O)Nc3noc4cc(Cn5cccn5)nc(OC)c34)c2c1` [Example 78, N-(6-((1H-Pyrazol-1-yl)methyl)-4-methoxyisoxazolo[4,5-c]pyridin-3-yl)-5-methoxybenzofuran-3-sulfonamide] stands 7.97 nM.
The compound `COc1ccc2ccoc2c1S(=O)(=O)Nc1noc2cc(Cn3cc(C)cn3)nc(OC)c12` [Example 83, 6-Methoxy-N-(4-methoxy-6-((4-methyl-1H-pyrazol-1-yl)methyl)isoxazolo[4,5-c]pyridin-3-yl)benzofuran-7-sulfonamide] displayed an IC50 of 4.12 nM.
Under `COc1cc2c(c(S(=O)(=O)Nc3noc4cc(Cn5cccn5)nc(OC)c34)c1)OCCC2` [Example 84, N-(6-((1H-Pyrazol-1-yl)methyl)-4-methoxyisoxazolo[4,5-c]pyridin-3-yl)-6-methoxy-3,4-dihydro-1H-benzopyran-8-sulfonamide] stands 1.21 nM; under `COc1c(S(=O)(=O)Nc2noc3cc(Cn4cccn4)nc(OC)c23)ccc2ccoc12` [Example 86, N-(6-((1H-Pyrazol-1-yl)methyl)-4-methoxyisoxazolo[4,5-c]pyridin-3-yl)-7-methoxybenzofuran-6-sulfonamide], 10 nM; under `COc1c(S(=O)(=O)Nc2noc3cc(Cn4cccn4)nc(OC)c23)ccc2c1OCO2` [Example 87, N-(6-((1H-Pyrazol-1-yl)methyl)-4-methoxyisoxazolo[4,5-c]pyridin-3-yl)-4-methoxy-1,3-benzodioxole-5-sulfonamide], 2.67 nM.
The same measure for `COc1nc(Cn2cccn2)cc2onc(NS(=O)(=O)c3ccc4c(c3)OC(F)(F)O4)c12` [Example 89, N-(6-((1H-Pyrazol-1-yl)methyl)-4-methoxyisoxazolo[4,5-c]pyridin-3-yl)-2,2-difluoro-1,3-benzodioxole-5-sulfonamide]: 16.8 nM.
